Assay results: US5569658A, “Tricyclic derivatives” (Zeneca Limited, priority 1993, dated 1996)

Legend:
[1] = molecular target: T1, receptor tyrosine kinase (Homo sapiens, UniProt P00533); experiment: in vitro assay: inhibition of the enzyme receptor tyrosine kinase (Test (a)); assay type: biochemical; details: partially purified enzyme from A-431 cells; EGF; peptide substrate, [γ-32P]ATP; 25° C., 10 minutes
T1 construct: Receptor tyrosine kinase was obtained in partially purified form from A-431 cells; endogenous in cells; host or cells: A-431 cells (human vulval carcinoma); partially purified, Triton X-100 solubilised membrane fraction
T1 sequence (P00533 25-1210): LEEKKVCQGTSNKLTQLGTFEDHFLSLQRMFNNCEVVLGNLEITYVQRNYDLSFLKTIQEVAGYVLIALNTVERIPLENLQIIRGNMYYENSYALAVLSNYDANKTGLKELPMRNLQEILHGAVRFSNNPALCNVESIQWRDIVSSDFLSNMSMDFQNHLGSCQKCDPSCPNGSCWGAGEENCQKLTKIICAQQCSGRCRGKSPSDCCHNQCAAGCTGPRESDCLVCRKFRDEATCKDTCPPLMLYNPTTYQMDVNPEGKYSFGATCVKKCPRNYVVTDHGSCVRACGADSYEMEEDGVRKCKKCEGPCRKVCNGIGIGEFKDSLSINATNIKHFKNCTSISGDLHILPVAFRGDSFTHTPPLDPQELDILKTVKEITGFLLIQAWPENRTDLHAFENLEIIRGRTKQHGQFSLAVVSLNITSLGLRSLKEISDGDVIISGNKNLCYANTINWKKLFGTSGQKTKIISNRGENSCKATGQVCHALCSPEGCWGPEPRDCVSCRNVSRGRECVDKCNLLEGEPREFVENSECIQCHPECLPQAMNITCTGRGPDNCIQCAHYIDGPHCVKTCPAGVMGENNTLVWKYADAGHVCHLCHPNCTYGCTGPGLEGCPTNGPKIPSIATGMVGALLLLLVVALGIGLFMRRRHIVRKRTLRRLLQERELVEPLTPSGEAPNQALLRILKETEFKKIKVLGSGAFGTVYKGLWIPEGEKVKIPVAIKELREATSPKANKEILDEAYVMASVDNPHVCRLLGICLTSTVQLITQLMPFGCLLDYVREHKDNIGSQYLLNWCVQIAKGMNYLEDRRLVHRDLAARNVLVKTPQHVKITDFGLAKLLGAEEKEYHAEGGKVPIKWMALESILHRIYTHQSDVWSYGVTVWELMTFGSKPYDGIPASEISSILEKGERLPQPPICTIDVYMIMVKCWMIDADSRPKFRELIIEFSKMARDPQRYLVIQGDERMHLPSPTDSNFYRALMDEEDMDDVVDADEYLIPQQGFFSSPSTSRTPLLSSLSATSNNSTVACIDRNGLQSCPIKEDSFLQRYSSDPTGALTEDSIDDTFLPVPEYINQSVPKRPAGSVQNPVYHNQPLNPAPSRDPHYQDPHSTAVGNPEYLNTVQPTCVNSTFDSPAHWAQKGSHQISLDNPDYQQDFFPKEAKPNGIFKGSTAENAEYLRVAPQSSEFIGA
Method: (a) An in vitro assay which determines the ability of a test compound to inhibit the enzyme receptor tyrosine kinase. Receptor tyrosine kinase was obtained in partially purified form from A-431 cells (derived from human vulval carcinoma) by procedures related to those described by Carpenter et al., J. Biol. Chem., 1979, 254, 4884, Cohen et al., J. Biol. Chem., 1982, 257, 1523 and by Braun et al., J. Biol. Chem., 1984, 259, 2051.
A-431 cells were grown to confluence using Dulbecco's modified Eagle's medium (DMEM) containing 5% fetal calf serum (FCS). The obtained cells were homogenised in a hypotonic borate/EDTA buffer at pH 10.1. The homogenate was centrifuged at 400 g for 10 minutes at 0°-4° C. The supernatant was centrifuged at 25,000 g for 30 minutes at 0°-4° C. […]
The test compound/EGF mixture solution (5 μl) was added to the test enzyme solution (10 μl) and the mixture was incubated at 0°-4° C. for 30 minutes. […] Radioactivity present in the filter paper was measured using a liquid scintillation counter (Sequence A). […]
Receptor tyrosine kinase inhibition was calculated as follows: [formula]
The extent of inhibition was then determined at a range of concentrations of test compound to give an IC50 value.

[2] = tested on: human naso-pharyngeal cancer cell line KB; experiment: in vitro assay: inhibition of growth of the human naso-pharyngeal cancer cell line KB (Test (b)); assay type: cell-based; details: 72 h, EGF (10 ng/ml), 3 days, MTT
Method: (b) An in vitro assay which determines the ability of a test compound to inhibit the growth of the human naso-pharyngeal cancer cell line KB.
KB cells were seeded into wells at a density of 1×10^4 -1.5×10^4 cells per well and grown for 24 hours in DMEM supplemented with 5% FCS (charcoal-stripped). Cell growth was determined after incubation for 3 days by the extent of metabolism of MTT tetrazolium dye to furnish a bluish color. Cell growth was then determined in the presence of EGF (10 ng/ml) or in the presence of EGF (10 ng/ml) and a test compound at a range of concentrations. An IC50 value could then be calculated.

[3] = tested on: liver hepatocyte; experiment: in vivo assay: inhibition of TGFα-stimulated liver hepatocyte growth in rats (Test (c)); set-up: species or system rat; details: TGFα 400 μg/kg subcutaneously; for ED50: Rattus norvegicus, Hepatocyte, male rats, usually oral, approximate ED50, read-out: ED50 in Test (c), inhibition of liver hepatocyte proliferation (BrdU uptake)
Method: (c) An in vivo assay in a group of male rats which determines the ability of a test compound (usually administered orally as a ball-milled suspension in 0.5% polysorbate) to inhibit the stimulation of liver hepatocyte growth caused by the administration of the growth factor TGFα (400 μg/kg subcutaneously, usually dosed twice, 3 and 7 hours respectively after the administration of the test compound).
In a control group of rats, the administration of TGFα causes on average a 5-fold stimulation of liver hepatocyte growth.
Cell-growth in the control and test animals is determined as follows:
On the morning of the day after the dosing of the test compound (or 0.5% polysorbate in the control group), the animals are dosed with bromodeoxyuridine (BrdU; 100 mg/kg intraperitoneally). The animals are killed four hours later and the livers are excised. […] Further tests were carried out using a range of doses of the test compounds to allow the calculation of an approximate ED50 value for the inhibition of liver hepatocyte proliferation as determined by inhibition of the uptake of BrdU.

[4] = tested on: human mammary carcinoma which expresses epidermal growth factor (EGF) receptor tyrosine kinase; details: athymic nude mice; Toi et al., 1990; cited from earlier work
[5] = tested on: another carcinoma which does not express EGF receptor tyrosine kinase; details: Toi et al., 1990; cited from earlier work

Cc1cccc(Nc2ncnc3cc4c(cc23)[nH]c(=O)n4C)c1 [3-methyl-8-(3'-methylanilino)-1,2-dihydro-3H-imidazo[4,5-g]quinazolin-2-one]
IC50 [1]: 16 nM | IC50 [2]: 1190 nM | ED50 [3]: < 12.5 mg/kg

Cc1cccc(Nc2ncnc3cc4c(cc23)ncn4C)c1 [3-methyl-8-(3'-methylanilino)-3H-imidazo[4,5-g]-quinazoline]
IC50 [1]: 35 nM | IC50 [2]: 970 nM | ED50 [3]: < 5 mg/kg

O=CN/C=C/c1cc(O)ccc1O [erbstatin]
effect on tumour growth, carcinoma expressing EGF receptor tyrosine kinase [4]: specifically attenuates the growth | effect on tumour growth, carcinoma not expressing EGF receptor tyrosine kinase [5]: without effect

TGFα: the growth factor TGFα
stimulation of liver hepatocyte growth ([3]; control group of rats, on average): ~5 -fold
